# Tests used:
# [1] = test system: Oxytricha Nova G-quadruplex d(GGGGTTTTGGGG) (DNA, G4) GGGGTTTTGGGG; assay: UV melting, 260 nm; conditions: 100 mM NaCl; 10 mM sodium cacodylate, 0.5 mM EDTA, pH 7.0; 5 μM quadruplex, ligand 1:1
# [2] = test system: d(AGGGGTTTTCCCCT) hairpin duplex (DNA, hairpin) AGGGGTTTTCCCCT; assay: FID; conditions: 100 mM NaCl; 10 mM sodium cacodylate, 0.5 mM EDTA, pH 7.0, 20°C; thiazole orange 0.50 μM displaced
# [3] = test system: Oxytricha Nova G-quadruplex d(GGGGTTTTGGGG) (DNA, G4) GGGGTTTTGGGG; assay: FID; conditions: 100 mM NaCl; 10 mM sodium cacodylate, 0.5 mM EDTA, pH 7.0, 20°C; thiazole orange 0.50 μM displaced
# [4] = test system: Oxytricha Nova G-quadruplex d(GGGGTTTTGGGG) (DNA, G4) GGGGTTTTGGGG; assay: fluorescence titration; conditions: 100 mM NaCl; 10 mM sodium cacodylate, 0.5 mM EDTA, pH 7.0, 20°C
ΔTm [1] [°C],DC50 [2] [µM],DC50 [3] [µM],binding [4],SMILES
0.6,0.83,7.89,–,CN(C)CCN1C(=O)c2ccc3c4c(ccc(c24)C1=O)C(=O)N(CCCNC(=O)NCCSC[C@H]1O[C@@H](O[C@@H]2[C@@H](O)[C@H](N)C[C@H](N)[C@H]2O[C@H]2O[C@H](CN)[C@@H](O)[C@H](O)[C@H]2N)[C@H](O)[C@@H]1O[C@H]1O[C@@H](CN)[C@@H](O)[C@H](O)[C@H]1N)C3=O
0.5,0.75,0.30,–,NC[C@@H]1O[C@H](O[C@H]2[C@@H](O)[C@H](O[C@@H]3[C@@H](O)[C@H](N)C[C@H](N)[C@H]3O[C@H]3O[C@H](CN)[C@@H](O)[C@H](O)[C@H]3N)O[C@@H]2CSCCNC(=O)NCCCNC(=O)c2ccc3c(c2)C(=O)c2ccccc2C3=O)[C@H](N)[C@@H](O)[C@@H]1O

# The remaining lines, values behind:
SMILES,ΔTm [1] [°C],DC50 [2] [µM],DC50 [3] [µM],binding [4]
CN1C(=Cc2cc[n+](C)c3ccccc23)Sc2ccccc21,–,–,–,yes
NC[C@@H]1O[C@H](O[C@H]2[C@@H](O)[C@H](O[C@@H]3[C@@H](O)[C@H](N)C[C@H](N)[C@H]3O[C@H]3O[C@H](CN)[C@@H](O)[C@H](O)[C@H]3N)O[C@@H]2CO)[C@H](N)[C@@H](O)[C@@H]1O,0.0,53.44,76.02,–
NC[C@@H]1O[C@H](O[C@H]2[C@@H](O)[C@H](O[C@@H]3[C@@H](O)[C@H](N)C[C@H](N)[C@H]3O[C@H]3O[C@H](CN)[C@@H](O)[C@H](O)[C@H]3N)O[C@@H]2CSCCNC(=O)CCCc2ccc3ccc4cccc5ccc2c3c45)[C@H](N)[C@@H](O)[C@@H]1O,1.9,2.61,4.73,–
